Measurements as given in patent US12129237B2, “Substituted diaminocarboxamide and diaminocarbonitrile pyrimidines, compositions thereof, and methods of treatment therewith” (SIGNAL PHARMACEUTICALS, LLC, priority 2011, dated 2024).

Molecular target: T1, JNK1 (Homo sapiens, UniProt P45983)
T1 construct: purchased Carna Biosciences
Assay: JNK1 biochemical assays (one or more of: time resolved fluorescence, Z'-LYTE Cascade, radioactive)
Settings: Table 2; JNK1 IC50 activity level; read-out: Act. Level

T1 sequence (P45983 whole entry): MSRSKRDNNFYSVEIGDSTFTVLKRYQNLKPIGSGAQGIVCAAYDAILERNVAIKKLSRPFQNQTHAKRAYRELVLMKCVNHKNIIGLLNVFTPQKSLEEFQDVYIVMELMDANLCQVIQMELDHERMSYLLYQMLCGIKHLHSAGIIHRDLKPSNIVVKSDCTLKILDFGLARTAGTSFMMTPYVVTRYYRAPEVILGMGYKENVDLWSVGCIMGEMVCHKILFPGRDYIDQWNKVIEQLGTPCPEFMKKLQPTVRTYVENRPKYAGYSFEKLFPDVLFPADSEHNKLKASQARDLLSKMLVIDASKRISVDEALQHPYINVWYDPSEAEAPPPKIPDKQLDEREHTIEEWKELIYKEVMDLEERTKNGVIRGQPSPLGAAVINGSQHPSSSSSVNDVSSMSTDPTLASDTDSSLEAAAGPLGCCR

Compound | IC50 [nM]
CN(C)CCNc1ncc(C(N)=O)c(Nc2ccccc2)n1 [Example B-61, 2-(2-(dimethylamino)ethylamino)-4-(phenylamino)pyrimidine-5-carboxamide] | 1000 to 10000
CN1CCCC1CCNc1ncc(C(N)=O)c(Nc2ccccc2)n1 (stereo not drawn) [Example B-62, 2-(2-(1-methylpyrrolidin-2-yl)ethylamino)-4-(phenylamino)pyrimidine-5-carboxamide] | 1000 to 10000
NC(=O)c1cnc(NCCc2ccccn2)nc1Nc1ccccc1 [Example B-63, 4-(phenylamino)-2-(2-(pyridin-2-yl)ethylamino)pyrimidine-5-carboxamide] | 200 to 800
NC(=O)c1cnc(NCC2CCCO2)nc1Nc1ccccc1 (stereo not drawn) [Example B-64, 4-(phenylamino)-2-((tetrahydrofuran-2-yl)methylamino)pyrimidine-5-carboxamide] | 200 to 800
NC(=O)c1cnc(NCc2ccco2)nc1Nc1ccccc1 [Example B-65, 2-(furan-2-ylmethylamino)-4-(phenylamino)pyrimidine-5-carboxamide] | 1000 to 10000
COc1ccc(CCNc2ncc(C(N)=O)c(Nc3ccccc3)n2)cc1OC [Example B-66, 2-(3,4-dimethoxyphenethylamino)-4-(phenylamino)pyrimidine-5-carboxamide] | 200 to 800
NC(=O)c1cnc(NCc2ccc(F)cc2)nc1Nc1ccccc1 [Example B-67, 2-(4-fluorobenzylamino)-4-(phenylamino)pyrimidine-5-carboxamide] | 200 to 800
CCCNc1ncc(C(N)=O)c(Nc2ccccc2)n1 [Example B-68, 4-(phenylamino)-2-(propylamino)pyrimidine-5-carboxamide] | 200 to 800
COCCNc1ncc(C(N)=O)c(Nc2ccccc2)n1 [Example B-69, 2-(2-methoxyethylamino)-4-(phenylamino)pyrimidine-5-carboxamide] | 800 to 1000
NC(=O)c1cnc(NCc2ccc(F)c(F)c2)nc1Nc1ccccc1 [Example B-70, 2-(3,4-difluorobenzylamino)-4-(phenylamino)pyrimidine-5-carboxamide] | 200 to 800
NC(=O)c1cnc(NCCc2ccccc2)nc1Nc1ccccc1 [Example B-71, 2-(phenethylamino)-4-(phenylamino)pyrimidine-5-carboxamide] | 200 to 800
CC(CNc1ncc(C(N)=O)c(Nc2ccccc2)n1)c1ccccc1 (stereo not drawn) [Example B-72, 4-(phenylamino)-2-(2-phenylpropylamino)pyrimidine-5-carboxamide] | 200 to 800
NC(=O)c1cnc(NCc2ccccc2)nc1Nc1ccccc1 [Example B-73, 2-(benzylamino)-4-(phenylamino)pyrimidine-5-carboxamide] | 800 to 1000
NC(=O)c1cnc(N[C@@H]2CCCc3ccccc32)nc1N[C@@H]1CCC[C@H](O)C1 [Example B-74, 4-((1R,3S)-3-hydroxycyclohexylamino)-2-((R)-1,2,3,4-tetrahydronaphthalen-1-ylamino)pyrimidine-5-carboxamid] | < 200
NC(=O)c1cnc(N[C@H]2CCCc3ccccc32)nc1N[C@@H]1CCC[C@H](O)C1 [Example B-75, 4-((1R,3S)-3-hydroxycyclohexylamino)-2-((S)-1,2,3,4-tetrahydronaphthalen-1-ylamino)pyrimidine-5-carboxamid] | < 200
NC(=O)c1cnc(N[C@@H]2CCc3ncccc3C2)nc1N[C@@H]1CCC[C@H](O)C1 [Example B-76, 4-((1R,3S)-3-hydroxycyclohexylamino)-2-((R)-5,6,7,8-tetrahydroquinolin-6-ylamino)pyrimidine-5-carboxamid] | < 200
NC(=O)c1cnc(N[C@H]2CCc3ncccc3C2)nc1N[C@@H]1CCC[C@H](O)C1 [Example B-77, 4-((1R,3S)-3-hydroxycyclohexylamino)-2-((S)-5,6,7,8-tetrahydroquinolin-6-ylamino)pyrimidine-5-carboxamid] | < 200
NC(=O)c1cnc(N[C@H]2CCOc3ccccc32)nc1N[C@@H]1CCC[C@H](O)C1 [Example B-78, 2-((S)-chroman-4-ylamino)-4-((1R,3S)-3-hydroxycyclohexylamino)pyrimidine-5-carboxamide] | 800 to 1000
NC(=O)c1cnc(N[C@@H]2CCOc3ccccc32)nc1N[C@@H]1CCC[C@H](O)C1 [Example B-79, 2-((R)-chroman-4-ylamino)-4-((1R,3S)-3-hydroxycyclohexylamino)pyrimidine-5-carboxamide] | < 200
CC(C)Nc1nc(N[C@H]2CCc3ncccc3C2)ncc1C(N)=O [Example B-80, (S)-4-(isopropylamino)-2-(5,6,7,8-tetrahydroquinolin-6-ylamino)pyrimidine-5-carboxamide] | < 200

Compound | IC50 [nM]
CC(C)Nc1nc(N[C@@H]2CCc3ncccc3C2)ncc1C(N)=O [Example B-81, (R)-4-(isopropylamino)-2-(5,6,7,8-tetrahydroquinolin-6-ylamino)pyrimidine-5-carboxamide] | 200 to 800
CC(C)Nc1nc(N[C@@H]2CCc3ccccc3C2)ncc1C(N)=O [Example B-83, (R)-4-(isopropylamino)-2-(1,2,3,4-tetrahydronaphthalen-2-ylamino)pyrimidine-5-carboxamide] | < 200
NC(=O)c1cnc(N[C@@H]2CCc3ccccc3C2)nc1N[C@@H]1CCC[C@H](O)C1 [Example B-84, 4-((1R,3S)-3-hydroxycyclohexylamino)-2-((R)-1,2,3,4-tetrahydronaphthalen-2-ylamino)pyrimidine-5-carboxamide] | < 200
NC(=O)c1cnc(N[C@H]2CCc3ccccc3C2)nc1N[C@@H]1CCC[C@H](O)C1 [Example B-85, 4-((1R,3)S-3-hydroxycyclohexylamino)-2-((S)-1,2,3,4-tetrahydronaphthalen-2-ylamino)pyrimidine-5-carboxamide] | 800 to 1000
N#Cc1cnc(NC2CCCCC2)nc1Nc1ccccc1 [Example B-86, 2-(cyclohexylamino)-4-(phenylamino)pyrimidine-5-carbonitrile] | 1000 to 10000
NC(=O)c1cnc(N[C@H]2CCc3cccnc3C2)nc1N[C@@H]1CCC[C@H](O)C1 [Example B-87, 4-((1R,3S)-3-hydroxycyclohexylamino)-2-((S)-5,6,7,8-tetrahydroquinolin-7-ylamino)pyrimidine-5-carboxamide] | < 200
NC(=O)c1cnc(N[C@@H]2CCc3cccnc3C2)nc1N[C@@H]1CCC[C@H](O)C1 [Example B-88, 4-((1R,3S)-3-hydroxycyclohexylamino)-2-((R)-5,6,7,8-tetrahydroquinolin-7-ylamino)pyrimidine-5-carboxamide] | < 200
C[C@@H](Nc1ncc(C(N)=O)c(N[C@@H]2CCC[C@H](O)C2)n1)c1ccc(F)cc1 [Example B-89, 2-((R)-1-(4-fluorophenyl)ethylamino)-4-((1R,3S)-3-hydroxycyclohexylamino)pyrimidine-5-carboxamide] | < 200
C[C@H](Nc1ncc(C(N)=O)c(N[C@@H]2CCC[C@H](O)C2)n1)c1ccc(F)cc1 [Example B-90, 2-((S)-1-(4-fluorophenyl)ethylamino)-4-((1R,3S)-3-hydroxycyclohexylamino)pyrimidine-5-carboxamide] | 1000 to 10000
CC(C)Nc1nc(N[C@H]2CCc3cnccc3C2)ncc1C(N)=O [Example B-91, (S)-4-(isopropylamino)-2-(5,6,7,8-tetrahydroisoquinolin-6-ylamino)pyrimidine-5-carboxamide] | 200 to 800
CC(C)Nc1nc(N[C@@H]2CCc3cnccc3C2)ncc1C(N)=O [Example B-92, (R)-4-(isopropylamino)-2-(5,6,7,8-tetrahydroisoquinolin-6-ylamino)pyrimidine-5-carboxamide] | < 200
C[C@@H]1CC[C@@H](Nc2nc(N[C@H]3CCc4ncccc4C3)ncc2C(N)=O)C[C@H]1O [Example B-93, 4-((1R,3R,4R)-3-hydroxy-4-methylcyclohexylamino)-2-((S)-5,6,7,8-tetrahydroquinolin-6-ylamino)pyrimidine-5-carboxamide] | < 200
C[C@@H]1CC[C@@H](Nc2nc(N[C@@H]3CCc4ncccc4C3)ncc2C(N)=O)C[C@H]1O [Example B-94, 4-((1R,3R,4R)-3-hydroxy-4-methylcyclohexylamino)-2-((R)-5,6,7,8-tetrahydroquinolin-6-ylamino)pyrimidine-5-carboxamide] | < 200
NC(=O)c1cnc(N[C@H]2CCc3cnccc3C2)nc1N[C@@H]1CCC[C@H](O)C1 [Example B-95, 4-((1R,3S)-3-hydroxycyclohexylamino)-2-((S)-5,6,7,8-tetrahydroisoquinolin-6-ylamino)pyrimidine-5-carboxamide] | < 200
NC(=O)c1cnc(N[C@@H]2CCc3cnccc3C2)nc1N[C@@H]1CCC[C@H](O)C1 [Example B-96, 4-((1R,3S)-3-hydroxycyclohexylamino)-2-((R)-5,6,7,8-tetrahydroisoquinolin-6-ylamino)pyrimidine-5-carboxamide] | < 200
NC(=O)c1cnc(N[C@H]2CCc3ncccc3C2)nc1N[C@@H]1CCCC[C@H](O)C1 [Example B-97, 4-((1R,3S)-3-hydroxycycloheptylamino)-2-((S)-5,6,7,8-tetrahydroquinolin-6-ylamino)pyrimidine-5-carboxamide] | < 200
NC(=O)c1cnc(N[C@@H]2CCc3ncccc3C2)nc1N[C@@H]1CCCC[C@H](O)C1 [Example B-98, 4-((1R,3S)-3-hydroxycycloheptylamino)-2-((R)-5,6,7,8-tetrahydroquinolin-6-ylamino)pyrimidine-5-carboxamide] | < 200
CC1(C)CCC(Nc2ncc(C(N)=O)c(N[C@@H]3CCC[C@H](O)C3)n2)c2ccccc21 (stereo partly drawn) [Example B-99, 2-(4,4-dimethyl-1,2,3,4-tetrahydronaphthalen-1-ylamino)-4-((1R,3S)-3-hydroxycyclohexylamino)pyrimidine-5-carboxamide] | 200 to 800
C[C@]1(O)CCC[C@@H](Nc2nc(N[C@@H]3CCc4ncccc4C3)ncc2C(N)=O)C1 [Example B-101, 4-((1R,3S)-3-hydroxy-3-methylcyclohexylamino)-2-((R)-5,6,7,8-tetrahydroquinolin-6-ylamino)pyrimidine-5-carboxamide] | < 200
